Measured values published in US9433667B2, “Cancer vaccines and vaccination methods” (Cedars-Sinai Medical Center, priority 2006, dated 2016).

Tests used:
[1] = system: T2 pulsed Her-2 native peptide; experiment: IFN-γ production of Her-2 APL-specific CTLs induced in vitro from patient-derived PBMCs; assay type: cell-based, human; conditions: among four CTLs, two HLA-A*0201 GBM patients, P<0.05 vs No. 52
Description: FIGS. 3A and 3B are bar graphs that show IFN-γ levels after in vitro induction of CTL in patient-derived PBMCs with native or superagonist Her-2 peptides in accordance with an embodiment of the present invention in two different patients.
(§1) The following protocol can be used to produce antigen specific CTL in vitro from patient derived PBMC. To generate dendritic cells, the plastic adherent cells from PBMCs are cultured in AIM-V medium supplemented with recombinant human GM-CSF and recombinant human IL-4 at 37° C. in a humidified CO2 (5%) incubator. Six days later, the immature dendritic cells in the cultures are stimulated with recombinant human TNF-α for maturation. Mature dendritic cells are then harvested on day 8, resuspended in PBS at 1×10^6 per mL with peptide (2 μg/mL), and incubated for 2 hours at 37° C. Autologous CD8+ T cells are enriched from PBMCs using magnetic microbeads (Miltenyi Biotech, Auburn, Calif.). CD8+ T cells (2×10^6 per well) are cocultured with 2×10^5 per well peptide-pulsed dendritic cells in 2 mL/well of AIM-V medium supplemented with 5% human AB serum and 10 units/mL rhIL-7 (Cell Sciences) in each well of 24-well tissue culture plates. About 20 U/ml of IL-2 is added 24 h later at regular intervals, 2 days after each restimulation. […] After 24 hours incubation, IFN-γ in the medium is measured by ELISA assay. […]

[2] = system: T2 pulsed with gp100 native peptide; experiment: IFN-γ production of gp100 APL-specific CTLs induced in vitro from patient-derived PBMCs; assay type: cell-based, human; conditions: among six CTLs, two HLA-A*0201 GBM patients, P<0.05 vs gp100 (2M)
Description: FIGS. 2A and 2B are bar graphs that show IFN-γ levels after in vitro induction of CTL in patient-derived PBMCs with dendritic cells pulsed with gp100(2M) or superagonist gp100 peptides in accordance with an embodiment of the present invention in two separate patients.
as §1

[3] = system: T cells specific for ML-M epitope 19-30; experiment: Epitope-specific T cell responses in mice after IV immunization, measured by cell proliferation in vitro; assay type: in vivo, C3H mice; conditions: for T cell response after immunization: IV immunization, lymph node T cells recalled with peptides, FIG. 1
Description: FIG. 1 is a graph depicting levels of epitope-specific T cell responses in mice following immunization IV with mouse lysozyme-M (ML-M), a mouse lysozyme peptide (p19-30), and a mouse lysozyme peptide modified with dibasic residues (18R31R), as measured by cell proliferation in vitro. T cells were isolated from lymph nodes of the animals (3 animals per group) and response to each immunogen was measured.
In studies using mouse lysozyme-M (ML-M) as a model self Ag, it was observed that mice of diverse MHC haplotypes were tolerant to native (unmutated) ML-M and peptide forms of certain T cell epitopes. It was hypothesized that tolerance to a given epitope was not an inherent structural characteristic, but was attributable in part to inefficient processing of the epitope, owing either to the absence of a proteolytic cleavage site adjacent to that determinant, or to the inaccessibility to the proteolytic enzyme(s) of an existing cleavage site within that region of the molecule. In either case, the provision of a new proteolytic cleavage site adjacent to a cryptic determinant may permit scission of the peptide at that site, making the previously cryptic epitope region available for binding to the appropriate MHC molecule, and lead to presentation to specific T cells of that determinant as a neodominant epitope on the APC surface. To test this proposition, a dibasic motif, consisting of two contiguous basic amino acid residues, e.g., arg-arg (RR) or arg-lys (RK), was used.
The targeted regions within ML-M included residues 19-31, which contain cryptic epitopes for mice of the H-2^k haplotype, shown in Table 7.

## H- F M A N V A I P H L -NH2 (H-FMANVAIPHL-NH2) [No. 19]
[1]
  IFN-γ level of CTL stimulated by the peptide: highest IFN-γ level

## H- Y M D Q V P Y S V -NH2 (H-YMDQVPYSV-NH2) [No. 38]
[2]
  IFN-γ level of CTL stimulated by the peptide: highest IFN-γ level

## RR-GYYGVSLADWVC-RR (RRGYYGVSLADWVCRR; RR flanking dibasic residues; Synthetically generated peptide) [RR-p18-31-RR]
[3]
  T cell response after immunization: raised a potent T cell response
[3]; recall antigen in vitro
  in vitro restimulation of T cells primed by RR-p18-31-RR: could be restimulated

B1: mouse lysozyme-M (protein, UniProt P08905 19-148, looked up)
Lysozyme C-2: KVYERCEFARTLKRNGMAGYYGVSLADWVCLAQHESNYNTRATNYNRGDQSTDYGIFQINSRYWCNDGKTPRAVNACGINCSALLQDDITAAIQCAKRVVRDPQGIRAWVAWRAHCQNRDLSQYIRNCGV
notes: model self antigen, native (unmutated) mouse lysozyme-M
[3]
  T cell response after immunization: failed to respond
